Results published in patent publication US9738634B2, “Heterocyclic amide compound and herbicide” (SYNGENTA PARTICIPATIONS AG, priority 2013, dated 2017).

Tests used:
Type in all cases: in vivo
transplanted rice = experiment: Test Example 1: preemergent weed treatment in the submerged state, effect on crop; a: transplanted rice; conditions: treatment dosage 252 g/ha
Method in brief: (§1)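 Pre-emergence paddy test: weed seeds sown in submerged alluvial soil (4 cm water), 2.5-leaf rice transplanted, water-diluted emulsion applied to water surface at sowing at stated g/ha. Scored at 3 weeks, greenhouse 25–30 °C.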

green foxtail [1] = experiment: Test Example 4: weedkilling efficacy by foliar treatment; E: green foxtail; conditions: treatment dosage 315 g/ha
Method in brief: (§2)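 Seeds are spot-sown into sterilized diluvial soil and covered with about 1.5 cm of soil. After 14 days' greenhouse growth at 25 to 30° C, plants are sprayed on stems and leaves with diluted emulsion at the stated g/ha rate, then scored at 3 weeks.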

wheat [2] = experiment: Test Example 4: foliar treatment, effect on crop; e: wheat; conditions: treatment dosage 315 g/ha
Method in brief: as §2

bulrush [3] = experiment: Test Example 2: weedkilling efficacy, growth period weed treatment in the submerged state; B: bulrush; conditions: treatment dosage 252 g/ha
Method in brief: (§3)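 Seedlings at 1-2 leaves in 4 cm-deep submerged alluvial soil received emulsion formulations on the water surface, dosed per hectare; effects were judged 3 weeks on.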

black-grass [4] = experiment: Test Example 4: weedkilling efficacy by foliar treatment; H: black-grass; conditions: treatment dosage 315 g/ha
Method in brief: as §2

crabgrass [5] = experiment: Test Example 4: weedkilling efficacy by foliar treatment; D: crabgrass; conditions: treatment dosage 315 g/ha
Method in brief: as §2

directly sown rice [6] = experiment: Test Example 4: foliar treatment, effect on crop; b: directly sown rice; conditions: treatment dosage 315 g/ha
Method in brief: as §2

beet [7] = experiment: Test Example 3: soil treatment, effect on crop; f: beet; conditions: treatment dosage 315 g/ha
Method in brief: (§4)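 Crop and weed responses were judged three weeks after a uniform surface spray of the water-diluted emulsion at the given g/ha rate. Seeds sat beneath about 1.5 cm of sterilized diluvial soil, and boxes stood in a greenhouse at 25 to 30° C.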

oval-leafed pondweed [8] = experiment: Test Example 1: weedkilling efficacy, preemergent weed treatment in the submerged state; C: oval-leafed pondweed; conditions: treatment dosage 252 g/ha
Method in brief: as §1

directly sown rice [9] = experiment: Test Example 3: soil treatment, effect on crop; b: directly sown rice; conditions: treatment dosage 315 g/ha
Method in brief: as §4

beet [10] = experiment: Test Example 4: foliar treatment, effect on crop; f: beet; conditions: treatment dosage 315 g/ha
Method in brief: as §2

Indian mallow [11] = experiment: Test Example 4: weedkilling efficacy by foliar treatment; K: Indian mallow; conditions: treatment dosage 315 g/ha
Method in brief: as §2

black-grass [12] = experiment: Test Example 3: weedkilling efficacy through soil treatment; H: black-grass; conditions: treatment dosage 315 g/ha
Method in brief: as §4

chickweed [13] = experiment: Test Example 4: weedkilling efficacy by foliar treatment; N: chickweed; conditions: treatment dosage 315 g/ha
Method in brief: as §2

Indian mallow [14] = experiment: Test Example 3: weedkilling efficacy through soil treatment; K: Indian mallow; conditions: treatment dosage 315 g/ha
Method in brief: as §4

bulrush [15] = experiment: Test Example 1: weedkilling efficacy, preemergent weed treatment in the submerged state; B: bulrush; conditions: treatment dosage 252 g/ha
Method in brief: as §1

barnyard grass [16] = experiment: Test Example 2: weedkilling efficacy, growth period weed treatment in the submerged state; A: barnyard grass; conditions: treatment dosage 252 g/ha
Method in brief: as §3

crabgrass [17] = experiment: Test Example 3: weedkilling efficacy through soil treatment; D: crabgrass; conditions: treatment dosage 315 g/ha
Method in brief: as §4

redroot pigweed [18] = experiment: Test Example 3: weedkilling efficacy through soil treatment; L: redroot pigweed; conditions: treatment dosage 315 g/ha
Method in brief: as §4

barnyard grass [19] = experiment: Test Example 1: weedkilling efficacy, preemergent weed treatment in the submerged state; A: barnyard grass; conditions: treatment dosage 252 g/ha
Method in brief: as §1

corn [20] = experiment: Test Example 4: foliar treatment, effect on crop; c: corn; conditions: treatment dosage 315 g/ha
Method in brief: as §2

birds-eye speedwell [21] = experiment: Test Example 3: weedkilling efficacy through soil treatment; p: birds-eye speedwell; conditions: treatment dosage 315 g/ha
Method in brief: as §4

fig-leafed goosefoot [22] = experiment: Test Example 3: weedkilling efficacy through soil treatment; M: fig-leafed goosefoot; conditions: treatment dosage 315 g/ha
Method in brief: as §4

corn [23] = experiment: Test Example 3: soil treatment, effect on crop; c: corn; conditions: treatment dosage 315 g/ha
Method in brief: as §4

wheat [24] = experiment: Test Example 3: soil treatment, effect on crop; e: wheat; conditions: treatment dosage 315 g/ha
Method in brief: as §4

Italian ryegrass [25] = experiment: Test Example 3: weedkilling efficacy through soil treatment; I: Italian ryegrass; conditions: treatment dosage 315 g/ha
Method in brief: as §4

catchweed = experiment: Test Example 4: weedkilling efficacy by foliar treatment; O: catchweed; conditions: treatment dosage 315 g/ha
Method in brief: as §2

Italian ryegrass [26] = experiment: Test Example 4: weedkilling efficacy by foliar treatment; I: Italian ryegrass; conditions: treatment dosage 315 g/ha
Method in brief: as §2

birds-eye speedwell [27] = experiment: Test Example 4: weedkilling efficacy by foliar treatment; p: birds-eye speedwell; conditions: treatment dosage 315 g/ha
Method in brief: as §2

fig-leafed goosefoot [28] = experiment: Test Example 4: weedkilling efficacy by foliar treatment; M: fig-leafed goosefoot; conditions: treatment dosage 315 g/ha
Method in brief: as §2

chickweed [29] = experiment: Test Example 3: weedkilling efficacy through soil treatment; N: chickweed; conditions: treatment dosage 315 g/ha
Method in brief: as §4

green foxtail [30] = experiment: Test Example 3: weedkilling efficacy through soil treatment; E: green foxtail; conditions: treatment dosage 315 g/ha
Method in brief: as §4

redroot pigweed [31] = experiment: Test Example 4: weedkilling efficacy by foliar treatment; L: redroot pigweed; conditions: treatment dosage 315 g/ha
Method in brief: as §2

soybean [32] = experiment: Test Example 3: soil treatment, effect on crop; d: soybean; conditions: treatment dosage 315 g/ha
Method in brief: as §4

soybean [33] = experiment: Test Example 4: foliar treatment, effect on crop; d: soybean; conditions: treatment dosage 315 g/ha
Method in brief: as §2

oval-leafed pondweed [34] = experiment: Test Example 2: weedkilling efficacy, growth period weed treatment in the submerged state; C: oval-leafed pondweed; conditions: treatment dosage 252 g/ha
Method in brief: as §3

Structure (SMILES) | a (transplanted rice) effect on crop grade (transplanted rice) | E (green foxtail) weedkilling efficacy grade (green foxtail [1]) | e (wheat) effect on crop grade (wheat [2]) | B (bulrush) weedkilling efficacy grade (bulrush [3]) | H (black-grass) weedkilling efficacy grade (black-grass [4]) | D (crabgrass) weedkilling efficacy grade (crabgrass [5]) | b (directly sown rice) effect on crop grade (directly sown rice [6]) | f (beet) effect on crop grade (beet [7]) | C (oval-leafed pondweed) weedkilling efficacy grade (oval-leafed pondweed [8]) | b (directly sown rice) effect on crop grade (directly sown rice [9]) | f (beet) effect on crop grade (beet [10]) | K (Indian mallow) weedkilling efficacy grade (Indian mallow [11]) | H (black-grass) weedkilling efficacy grade (black-grass [12]) | N (chickweed) weedkilling efficacy grade (chickweed [13]) | K (Indian mallow) weedkilling efficacy grade (Indian mallow [14]) | B (bulrush) weedkilling efficacy grade (bulrush [15]) | A (barnyard grass) weedkilling efficacy grade (barnyard grass [16]) | D (crabgrass) weedkilling efficacy grade (crabgrass [17]) | L (redroot pigweed) weedkilling efficacy grade (redroot pigweed [18]) | A (barnyard grass) weedkilling efficacy grade (barnyard grass [19]) | also measured
CC1=C(c2cccnc2F)C(=O)N(C(C)(C)C(=O)Nc2cccc(Cl)n2)CO1 [B-2-08] | 0 (weed kill ratio 5% or less (practically no effect)) | 5 (weed kill ratio 90% or more, (practically complete withering)) | 2 (weed kill ratio 20% or more, less than 40%) | 5 (weed kill ratio 90% or more, (practically complete withering)) | 5 (weed kill ratio 90% or more, (practically complete withering)) | 5 (weed kill ratio 90% or more, (practically complete withering)) | 4 (weed kill ratio 70% or more, less than 90%) | 1 (weed kill ratio 5% or more, less than 20%) | 5 (weed kill ratio 90% or more, (practically complete withering)) | 5 (weed kill ratio 90% or more, (practically complete withering)) | 5 (weed kill ratio 90% or more, (practically complete withering)) | 4 (weed kill ratio 70% or more, less than 90%) | 5 (weed kill ratio 90% or more, (practically complete withering)) | 4 (weed kill ratio 70% or more, less than 90%) | 4 (weed kill ratio 70% or more, less than 90%) | 5 (weed kill ratio 90% or more, (practically complete withering)) | 5 (weed kill ratio 90% or more, (practically complete withering)) | 5 (weed kill ratio 90% or more, (practically complete withering)) | 4 (weed kill ratio 70% or more, less than 90%) | 5 (weed kill ratio 90% or more, (practically complete withering)) | c (corn) effect on crop grade (corn [20]): 0 (weed kill ratio 5% or less (practically no effect)); P (birds-eye speedwell) weedkilling efficacy grade (birds-eye speedwell [21]): 4 (weed kill ratio 70% or more, less than 90%); M (fig-leafed goosefoot) weedkilling efficacy grade (fig-leafed goosefoot [22]): 4 (weed kill ratio 70% or more, less than 90%); c (corn) effect on crop grade (corn [23]): 0 (weed kill ratio 5% or less (practically no effect)); e (wheat) effect on crop grade (wheat [24]): 3 (weed kill ratio 40% or more, less than 70%); I (Italian ryegrass) weedkilling efficacy grade (Italian ryegrass [25]): 5 (weed kill ratio 90% or more, (practically complete withering)); O (catchweed) weedkilling efficacy grade (catchweed): 3 (weed kill ratio 40% or more, less than 70%); I (Italian ryegrass) weedkilling efficacy grade (Italian ryegrass [26]): 5 (weed kill ratio 90% or more, (practically complete withering)); P (birds-eye speedwell) weedkilling efficacy grade (birds-eye speedwell [27]): 4 (weed kill ratio 70% or more, less than 90%); M (fig-leafed goosefoot) weedkilling efficacy grade (fig-leafed goosefoot [28]): 4 (weed kill ratio 70% or more, less than 90%); N (chickweed) weedkilling efficacy grade (chickweed [29]): 3 (weed kill ratio 40% or more, less than 70%); E (green foxtail) weedkilling efficacy grade (green foxtail [30]): 5 (weed kill ratio 90% or more, (practically complete withering)); L (redroot pigweed) weedkilling efficacy grade (redroot pigweed [31]): 4 (weed kill ratio 70% or more, less than 90%); d (soybean) effect on crop grade (soybean [32]): 0 (weed kill ratio 5% or less (practically no effect)); d (soybean) effect on crop grade (soybean [33]): 4 (weed kill ratio 70% or more, less than 90%); C (oval-leafed pondweed) weedkilling efficacy grade (oval-leafed pondweed [34]): 5 (weed kill ratio 90% or more, (practically complete withering))
CC1=C(c2ccsc2)C(=O)N(C(C)(C)C(=O)Nc2cccc(Cl)n2)CO1 [B-2-05] | 0 (weed kill ratio 5% or less (practically no effect)) | 5 (weed kill ratio 90% or more, (practically complete withering)) | 3 (weed kill ratio 40% or more, less than 70%) | 5 (weed kill ratio 90% or more, (practically complete withering)) | 5 (weed kill ratio 90% or more, (practically complete withering)) | 5 (weed kill ratio 90% or more, (practically complete withering)) | 4 (weed kill ratio 70% or more, less than 90%) | 5 (weed kill ratio 90% or more, (practically complete withering)) | 5 (weed kill ratio 90% or more, (practically complete withering)) | 3 (weed kill ratio 40% or more, less than 70%) | 4 (weed kill ratio 70% or more, less than 90%) | 3 (weed kill ratio 40% or more, less than 70%) | 5 (weed kill ratio 90% or more, (practically complete withering)) | 4 (weed kill ratio 70% or more, less than 90%) | 1 (weed kill ratio 5% or more, less than 20%) | 5 (weed kill ratio 90% or more, (practically complete withering)) | 5 (weed kill ratio 90% or more, (practically complete withering)) | 5 (weed kill ratio 90% or more, (practically complete withering)) | 4 (weed kill ratio 70% or more, less than 90%) | 5 (weed kill ratio 90% or more, (practically complete withering)) | c (corn) effect on crop grade (corn [20]): 4 (weed kill ratio 70% or more, less than 90%); P (birds-eye speedwell) weedkilling efficacy grade (birds-eye speedwell [21]): 5 (weed kill ratio 90% or more, (practically complete withering)); M (fig-leafed goosefoot) weedkilling efficacy grade (fig-leafed goosefoot [22]): 5 (weed kill ratio 90% or more, (practically complete withering)); c (corn) effect on crop grade (corn [23]): 0 (weed kill ratio 5% or less (practically no effect)); e (wheat) effect on crop grade (wheat [24]): 0 (weed kill ratio 5% or less (practically no effect)); I (Italian ryegrass) weedkilling efficacy grade (Italian ryegrass [25]): 5 (weed kill ratio 90% or more, (practically complete withering)); O (catchweed) weedkilling efficacy grade (catchweed): 4 (weed kill ratio 70% or more, less than 90%); I (Italian ryegrass) weedkilling efficacy grade (Italian ryegrass [26]): 5 (weed kill ratio 90% or more, (practically complete withering)); P (birds-eye speedwell) weedkilling efficacy grade (birds-eye speedwell [27]): 5 (weed kill ratio 90% or more, (practically complete withering)); M (fig-leafed goosefoot) weedkilling efficacy grade (fig-leafed goosefoot [28]): 4 (weed kill ratio 70% or more, less than 90%); N (chickweed) weedkilling efficacy grade (chickweed [29]): 5 (weed kill ratio 90% or more, (practically complete withering)); E (green foxtail) weedkilling efficacy grade (green foxtail [30]): 5 (weed kill ratio 90% or more, (practically complete withering)); L (redroot pigweed) weedkilling efficacy grade (redroot pigweed [31]): 3 (weed kill ratio 40% or more, less than 70%); d (soybean) effect on crop grade (soybean [32]): 0 (weed kill ratio 5% or less (practically no effect)); d (soybean) effect on crop grade (soybean [33]): 3 (weed kill ratio 40% or more, less than 70%); C (oval-leafed pondweed) weedkilling efficacy grade (oval-leafed pondweed [34]): 5 (weed kill ratio 90% or more, (practically complete withering))
